In PMC10298530, “Synthesis and Anticancer Activity of A-Ring-Modified Derivatives of Dihydrobetulin” (International Journal of Molecular Sciences, 2023):
Several values for one entry are separate records, joined by “and”; a condition that tells them apart may be missing. Identical values can stand only once. Like-named read-outs stand apart in the source and are kept apart here.

Assays:
HBL-100/Dox cells [1] = test: Combined action of compounds, MTT assay on HBL-100/Dox cells; assay type: cell-based, human; details: 72 h, with 30 μM verapamil
Text: The results were expressed pictorially using Prism 6.0 (GraphPad Software, Boston, MA, USA).

HCT116 = test: MTT cell viability assay, HCT116; assay type: cell-based, human; details: Homo sapiens, HCT-116; HCT116, MTT, 72 h of treatment; read-out: IC50 Values (Mean ± SD)
Text: (§1) Blokhin National Medical Research Center of Oncology (the Ministry of Health of the Russian Federation, Moscow).

HBL-100 = test: MTT cell viability assay, HBL-100; assay type: cell-based, human; details: Homo sapiens
Description: (§2) The cells were cultured in a humidified CO2 incubator (model 460-CE; Thermo Fisher Scientific, Waltham, MA, USA) at +37 °C and 5% CO2.
(§3) The percentage of the viable cells was calculated according to the following equation: cell viability (%) = 100 × (mean absorbance in the treatment group/mean absorbance in the control group). The results were expressed pictorially using Prism 6.0 (GraphPad Software, Boston, MA, USA).

MS = test: MTT cell viability assay, MS; assay type: cell-based, human; details: Homo sapiens;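 for IC50 (mean ± SD): MS is a melanocyte cell line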
Text: as §1

PC-3 = test: MTT cell viability assay, PC-3; assay type: cell-based, human; details: Homo sapiens; PC-3, MTT, 72 h of treatment; read-out: IC50 Values (Mean ± SD)
Text: as §1

HEK293 = test: MTT cell viability assay, HEK293; assay type: cell-based; details: Homo sapiens
Text: as §1

MCF-7 = test: MTT cell viability assay, MCF-7; assay type: cell-based, human; details: Homo sapiens, MCF7
Text: as §1

HBL-100/Dox cells [2] = test: Annexin V-FITC/PI assay, HBL-100/Dox; assay type: cell-based, human; details: 16 h, dose IC50
Description: (§4) Briefly, after exposing the cells to the tested and control compounds for 16 h, the cells were detached with accutase (HiMedia Laboratories, Maharashtra, India) and washed with cold PBS. Then, the cells were re-suspended in 100 μL of 1 × Binding Buffer at concentration 1 × 10^6 cells/mL and incubated with 5 μL Annexin V-FITC and 5 μL propidium iodide (PI) for 15 min at room temperature in darkness. After incubation, 400 μL of 1 × Binding Buffer was added to each tube. The samples were analyzed by flow cytometry (CytoFlex S, Beckman Coulter, Brea, CA, USA) within 1 h of staining, and the findings were analyzed using a trial version of the Kaluza software (Beckman Coulter, Brea, CA, USA).

RD TE32 = test: MTT cell viability assay, RD TE32; assay type: cell-based, human; details: Homo sapiens
Text: as §1

HEpG2 = test: MTT cell viability assay, HEpG2; assay type: cell-based, human; details: Homo sapiens
Text: as §1

HBL-100/Dox cells [3] = test: Hoechst 33342 / TMRE fluorescent microscopy, HBL-100/Dox; assay type: cell-based, human; details: Hoechst 33342, 16 h, IC50 values (MK 1.8 µM)
Description: (§5) The DNA marker, termed Hoechst 33342 Ready Flow Reagent, was used as a stock solution (Invitrogen, ThermoFisher Scientific, USA). The mitochondrial marker, LumiTracker Mito TMRE (tetramethylrhodamine, ethyl ester; Lumiprobe, Moscow, Russia), was dissolved in DMSO as 1.0 mM stock solution. The marker of reactive oxygen species, H2DCFDA (Lumiprobe, Moscow, Russia), was dissolved in DMSO as 100.0 μM stock solution. After incubation, the cells were incubated with FBS-free culture medium containing the dye mixture of Hoechst 33342 (final concentration 1.0 μM) and LumiTracker Mito TMRE (final concentration 1.0 μM), or H2DCFDA dye taken alone (final concentration 1.0 μM), for 30 min at 37 °C in darkness. Fluorescence, at 420 nm (Hoechst 33342), at 510 nm (TMRE), and at 575 nm (H2DCFDA), of the test cultures (including controls) was analyzed immediately using a fluorescence microscope CKX 53 (Olympus, Tokyo, Japan). The TMRE fluorescence intensity was quantified using Fiji (ImageJ).

HBL-100 cells [4] = test: Annexin V-FITC/PI assay, HBL-100; assay type: cell-based, human; details: 16 h, dose IC50
Description: as §4

HBL-100 cells [5] = test: Hoechst 33342 / TMRE fluorescent microscopy, HBL-100; assay type: cell-based, human; details: Hoechst 33342, 16 h, IC50 values (MK 1.0 µM)
Description: as §5

HBL-100/Dox cells [6] = test: Cell cycle analysis (DAPI, flow cytometry), HBL-100/Dox; assay type: cell-based, human; details: HBL-100/Dox (resistant) cells, 12-24 h, IC50
Description: (§6) The cells were trypsinized and rinsed with the growth medium. Then, the cells were harvested by centrifugation at 500× g for 3 min, and the supernatant was discarded. The cells were washed with PBS (PanEco, Moscow, Russia) twice and centrifuged under similar conditions. The cells were resuspended in 500 μL of PBS, put into centrifuge tubes and fixed by adding 4.5 mL of 70% ethanol dropwise (on ice). The samples were fixed at 4 °C. Overnight, the fixed cells were centrifugally collected (1000× g, 4 °C, 5 min) and washed again with PBS. The cells were finally resuspended in DAPI with 0.1% Triton X-100 in PBS solution (10 μg/mL, Sigma–Aldrich, St. Louis, MO, USA), and stained for 30 min at room temperature in darkness. For each sample, at least 50,000 cells were analyzed using the CytoFlex S flow cytometer (Beckman Coulter, Brea, CA, USA). Cell cycle populations were quantified from DNA histograms with the FlowJo software (ver. X 10.0.7r2, FlowJo Software, San Jose, CA, USA).

HBL-100 cells [7] = test: Cell cycle analysis (DAPI, flow cytometry), HBL-100; assay type: cell-based, human; details: for Cell cycle of HBL-100, S-phase: dose = IC50
Description: as §6

HBL-100/Dox = test: MTT cell viability assay, HBL-100/Dox; assay type: cell-based, human; details: Homo sapiens
Description: as §2, §3

## COc1cccc2c1C(=O)c1c(O)c3c(c(O)c1C2=O)C[C@@](O)(C(=O)CO)C[C@@H]3O[C@H]1C[C@H](N)[C@H](O)[C@H](C)O1 [Dox, doxorubicin, reference compound]
HBL-100/Dox cells [1]
  diminution of IC50 value of Dox in combination with verapamil: 37 fold
HCT116
  IC50: 1300 ± 300 nM
HBL-100; HBL-100, MTT, 72 h of treatment, read-out: IC50 Values (Mean ± SD)
  IC50: 400 ± 100 nM
HBL-100; Table S1, HBL-100, read-out: IC50 (mean ± SD)
  IC50: 350 ± 30 nM
MS; MS, MTT, 72 h of treatment, read-out: IC50 Values (Mean ± SD)
  IC50: 1300 ± 200 nM
MS; Table S1, MS, read-out: IC50 (mean ± SD)
  IC50: 1290 ± 160 nM
PC-3
  IC50: 12600 ± 200 nM
HEK293; HEK293, MTT, 72 h of treatment, read-out: IC50 Values (Mean ± SD)
  IC50: 400 ± 100 nM
HEK293; Table S1, HEK293, read-out: IC50 (mean ± SD)
  IC50: 440 ± 40 nM
MCF-7; MCF-7, MTT, 72 h of treatment, read-out: IC50 Values (Mean ± SD)
  IC50: 400 ± 100 nM
MCF-7; Table S1, MCF-7, read-out: IC50 (mean ± SD)
  IC50: 380 ± 90 nM
HBL-100/Dox cells [2]
  Dead cells: 0.84±0.24%
  Early apoptotic cells: 2.56 ± 0.36% and 2.56±0.37%
  Late apoptotic cells: 0.82±0.55%
  Viable cells: 95.74±1.10%
RD TE32; RD TE32, MTT, 72 h of treatment, read-out: IC50 Values (Mean ± SD)
  IC50: 1300 ± 100 nM
RD TE32; Table S1, RD TE32, read-out: IC50 (mean ± SD)
  IC50: 1270 ± 30 nM
HEpG2; HEpG2, MTT, 72 h of treatment, read-out: IC50 Values (Mean ± SD)
  IC50: 1800 ± 300 nM
HEpG2; Table S1, HEpG2, read-out: IC50 (mean ± SD)
  IC50: 1780 ± 300 nM
HBL-100/Dox cells [3]
  number of cells with nuclear morphology changes: 9.9%
HBL-100 cells [4]
  Dead cells: 1.80±0.31%
  Early apoptotic cells: 12.35 ± 0.42%
  Late apoptotic cells: 1.93±0.29%
  Viable cells: 83.89±0.82%
HBL-100 cells [5]
  number of cells with nuclear morphology changes: 25.2%
HBL-100/Dox cells [6]
  effect on cell cycle progression: induced the S phase arrest
HBL-100 cells [7]; 12 h
  Cell cycle of HBL-100, S-phase: 48.19±0.09%
HBL-100 cells [7]; 13 h
  Cell cycle of HBL-100, S-phase: 46.86±0.22%
HBL-100 cells [7]; 14 h
  Cell cycle of HBL-100, S-phase: 48.25±0.51%
HBL-100 cells [7]; 15 h
  Cell cycle of HBL-100, S-phase: 57.27±0.14%
HBL-100 cells [7]; 16 h
  Cell cycle of HBL-100, S-phase: 61.28±2.01%
HBL-100 cells [7]; 17 h
  Cell cycle of HBL-100, S-phase: 56.17±1.64%
HBL-100 cells [7]; 18 h
  Cell cycle of HBL-100, S-phase: 55.42±0.92%
HBL-100 cells [7]; 24 h
  Cell cycle of HBL-100, S-phase: 76.69±0.75%
HBL-100 cells [7]; HBL-100 (parental) cells, 12-24 h, IC50
  effect on cell cycle progression: induced the S phase arrest
HBL-100/Dox; HBL-100, 72 h, read-out: IC50 Values (Mean ± SD)
  IC50: 29600 ± 900 nM
HBL-100/Dox; HBL-100, read-out: IC50 (mean ± SD)
  IC50: 29600 ± 940 nM
